These results are taken from US20250325690A1, “ANTIBODY-DRUG CONJUGATE WITH TWO TYPES OF DRUG-LINKER CONJUGATES ON SINGLE ANTIBODY” (priority 2022, published 2025).

Data set [1] has as its target T1, DDX5 (Homo sapiens, UniProt P17844).
T1 construct: endogenous in cells; host or cells: FaDu and A549 cell lines
It is filed as cell-based. To be noted: FaDu and A549, 0, 10, 100 nM, 24 hours.

The target of data set [2] is T2, DNA topoisomerase-1 (Homo sapiens, UniProt P11387).
T2 sequence (P11387 1-765): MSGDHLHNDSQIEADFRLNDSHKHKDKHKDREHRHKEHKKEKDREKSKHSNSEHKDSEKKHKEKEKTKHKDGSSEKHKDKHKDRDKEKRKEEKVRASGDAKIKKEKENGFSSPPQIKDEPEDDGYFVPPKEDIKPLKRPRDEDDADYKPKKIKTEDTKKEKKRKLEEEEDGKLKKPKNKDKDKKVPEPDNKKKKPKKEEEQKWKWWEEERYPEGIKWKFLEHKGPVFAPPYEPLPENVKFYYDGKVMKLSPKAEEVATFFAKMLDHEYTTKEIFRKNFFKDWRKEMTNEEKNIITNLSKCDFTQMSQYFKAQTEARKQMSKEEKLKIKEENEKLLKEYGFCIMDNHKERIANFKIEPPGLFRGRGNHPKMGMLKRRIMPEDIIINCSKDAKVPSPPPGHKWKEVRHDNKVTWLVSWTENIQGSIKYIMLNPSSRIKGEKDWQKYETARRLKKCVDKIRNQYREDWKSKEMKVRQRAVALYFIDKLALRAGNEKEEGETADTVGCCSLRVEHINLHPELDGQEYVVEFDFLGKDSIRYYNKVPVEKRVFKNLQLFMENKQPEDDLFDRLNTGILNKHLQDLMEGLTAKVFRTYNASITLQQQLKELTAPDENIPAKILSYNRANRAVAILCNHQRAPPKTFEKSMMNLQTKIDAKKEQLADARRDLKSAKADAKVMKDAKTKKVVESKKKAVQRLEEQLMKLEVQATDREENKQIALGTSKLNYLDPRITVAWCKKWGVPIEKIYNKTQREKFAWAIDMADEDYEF
The settings on record: cited from earlier work.

In data set [3] the test system is cancer cells. The settings on record: cited from earlier work.
The test system of data set [4] is cancer cells. The data set is described as follows: Cytotoxicity in cancer cell lines. The format is cell-based. The settings on record: 140 cell lines from various cancer types, most cancer cells.
Data set [5] can be described thus: GLP-toxicity tests. The format is in vivo. To be noted: mice and beagle dogs.
In data set [6] the test system is cancer cell line xenograft models. The data set is described as follows: Cancer cell line xenograft models, FL118 versus SN-38. The format is in vivo. The settings on record: same amount as SN-38.
In data set [7] the target is T3, ABCG2 transporter (Homo sapiens, UniProt Q9UNQ0).
T3 sequence (Q9UNQ0 1-655): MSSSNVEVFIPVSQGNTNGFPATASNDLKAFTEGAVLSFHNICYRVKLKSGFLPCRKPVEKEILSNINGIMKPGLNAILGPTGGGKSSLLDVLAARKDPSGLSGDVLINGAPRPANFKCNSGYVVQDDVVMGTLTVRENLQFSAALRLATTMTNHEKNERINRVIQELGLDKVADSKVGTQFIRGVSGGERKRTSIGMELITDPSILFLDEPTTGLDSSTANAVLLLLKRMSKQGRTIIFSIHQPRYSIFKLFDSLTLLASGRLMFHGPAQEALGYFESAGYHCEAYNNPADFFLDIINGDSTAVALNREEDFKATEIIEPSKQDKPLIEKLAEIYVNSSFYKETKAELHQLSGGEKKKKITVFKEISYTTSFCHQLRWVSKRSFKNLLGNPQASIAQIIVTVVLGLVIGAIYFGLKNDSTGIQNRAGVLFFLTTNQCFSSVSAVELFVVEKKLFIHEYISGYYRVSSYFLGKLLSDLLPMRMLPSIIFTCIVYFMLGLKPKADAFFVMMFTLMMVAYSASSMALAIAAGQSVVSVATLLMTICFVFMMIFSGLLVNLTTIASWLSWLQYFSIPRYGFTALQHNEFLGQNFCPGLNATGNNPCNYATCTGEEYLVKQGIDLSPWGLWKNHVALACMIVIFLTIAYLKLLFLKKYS
The data set is described as follows: Effect of ABCG2 transporter on drug. The format is cell-based.

In data set [8] the test system is survivin, cIAP2, Mcl-1, XIAP. The data set is described as follows: Western blotting of anti-apoptotic protein expression. To be noted: HCT-8 and FaDu cell lines; FIG. 17. (A western blot detects proteins with antibodies after separation by electrophoresis.)
Data set [9] has as its system FaDu cell line not expressing ABCG2. The data set is described as follows: In vitro cell viability test, FaDu. To be noted: FIG. 28, 3 days.
For data set [10] the following is noted: human, in vivo; cited from earlier work.

“Also recorded” adds a separate entry of the source. Where two headings read alike, the source gives them in different places. A value given as a limit tells only on which side of the number the result lay.

T1 sequence (P17844 whole entry): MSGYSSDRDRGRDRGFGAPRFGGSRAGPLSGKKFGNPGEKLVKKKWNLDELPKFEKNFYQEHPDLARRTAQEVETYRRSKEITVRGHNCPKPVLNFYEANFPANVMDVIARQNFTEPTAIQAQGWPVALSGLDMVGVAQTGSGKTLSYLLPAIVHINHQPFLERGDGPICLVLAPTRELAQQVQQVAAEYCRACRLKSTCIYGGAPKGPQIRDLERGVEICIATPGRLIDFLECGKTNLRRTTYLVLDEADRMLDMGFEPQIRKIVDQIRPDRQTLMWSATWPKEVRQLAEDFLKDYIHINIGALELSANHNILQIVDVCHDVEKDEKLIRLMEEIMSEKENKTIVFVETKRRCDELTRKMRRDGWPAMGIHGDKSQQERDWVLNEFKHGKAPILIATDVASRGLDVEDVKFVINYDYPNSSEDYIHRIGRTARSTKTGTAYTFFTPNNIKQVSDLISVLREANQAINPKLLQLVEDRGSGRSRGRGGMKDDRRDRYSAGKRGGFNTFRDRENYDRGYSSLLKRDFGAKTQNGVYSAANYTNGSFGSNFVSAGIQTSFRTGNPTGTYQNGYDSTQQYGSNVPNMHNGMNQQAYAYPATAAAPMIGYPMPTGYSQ

Regarding `CC[C@@]1(O)C(=O)OCc2c1cc1n(c2=O)Cc2c-1nc1cc3c(c4c1c2[C@@H](N)CC4)OCO3` (single isomer, unassigned) [PBX-7011], the DDX5 degradation entry in data set [1] was “degrading DDX5”; in [1] (listed as 7011), “followed by 7011, 7016, and 7014 in this order”.
One may read the IC50 as the concentration needed to halve the response being measured. `CC[C@@]1(O)C(=O)OCc2c1cc1n(c2=O)Cc2c-1nc1cc(F)c(C)c3c1c2[C@@H](NC(=O)CO)CC3` [Dxd]: the DDX5 degradation result in [1] is “exhibits a MoA that degrades the DDX5 protein”. In addition, the IC50 in [2] is 310 nM. Besides, the “cytotoxicity / activity in cancer cells relative to SN-38” value in [3] is listed as “about 10 times”.
On to `CC[C@@]1(O)C(=O)OCc2c1cc1n(c2=O)Cc2cc3cc4c(cc3nc2-1)OCO4` [FL118], for which the DDX5 degradation result in [1] is “superior to other substances”. Besides, the IC50 in data set [4] was less than 100 nM. Besides, the safety entry in data set [5] was “excellent safety”. Moreover, the “efficacy compared to SN-38” value in data set [6] was “superior efficiency compared to SN-38; also recorded: strong tumor regression efficacy compared to SN-38”. In addition, in data set [7], the “effect of ABCG2 transporter” value was “not affected by the ABCG2 transporter”. The “downregulating a tumor protein compared to SN-38” value in data set [8] is “better effect in downregulating a tumor protein”.
As for `CC[C@@]1(O)C(=O)OCc2c1cc1n(c2=O)Cc2c-1nc1cc3c(c4c1c2[C@@H](NC(=O)CO)CC4)OCO3` [PBX-7014], the DDX5 degradation entry is “degrading DDX5” in data set [1]; “followed by 7011, 7016, and 7014 in this order” in [1] (listed as 7014).
For `CC[C@@]1(O)C(=O)OCc2c1cc1n(c2=O)Cc2c-1nc1cc3c(c4c1c2[C@@H](NC(=O)[C@@H](C)O)CC4)OCO3` [PBX-7016], the DDX5 degradation entry in [1] was “degrading DDX5; also recorded: inhibits DDX5 in a concentration-dependent manner; also recorded: works better than PBX-7014”; in data set [1] (listed as 7016) it was “followed by 7011, 7016, and 7014 in this order”.
On to `CC[C@@]1(O)C(=O)OCc2c1cc1n(c2=O)Cc2c-1nc1cc3c(c4c1c2[C@@H](NC(=O)[C@@H](O)C1CC1)CC4)OCO3` [PBX-7024], for which the apoptotic efficacy entry in data set [9] is recorded as “potent apoptotic efficacy”.
Consider `CC[C@@]1(O)C(=O)OCc2c1cc1n(c2=O)Cc2c-1nc1cc(F)c(C)c3c1c2[C@@H](N)CC3` [exatecan], for which the DDX5 degradation entry in data set [1] was “exhibits a MoA that degrades the DDX5 protein”. Besides, the “downregulating a tumor protein compared to SN-38” value in [8] is given as “better effect in downregulating a tumor protein”.
On to Trodelvy, for which, in [10], the “diarrhea of all grades” value is 65%; the “febrile neutropenia, patients” value is on record as 7%; the “neutropenia grade 3 or higher” value is given as 47%; the “neutropenia of all grades” value is on record as 61%. The “neutropenic colitis, patients” value in [10] is 0.5%.
